Test systems include NCI-H522 lung; HT29 colon; RPMI-8226 leukemia; K-562 leukemia; 786-0 renal; T-47D breast; HOP-62 NSCLC; BT-549 breast; HCT-15 colon; MDA-MB-231 breast.
Common to all, as to test: DTP human tumour cell line panel, 48 h

The structures appear in SMILES notation.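 Tested at 5 concentrations; 48 h exposure; 96-well plates; endpoints linearly interpolated, else capped at highest concentration. GI50 = concentration required for 50% inhibition of growth. TGI marks complete inhibition of growth.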 A value given as a limit tells only on which side of the number the result lay.

Turning to `O=C(CCc1ccc(O)cc1)N/N=C/c1cc(Br)ccc1O`, the GI50 was 3.73 µM in the assay on NCI-H522 lung; 23.7 µM with HT29 colon; 3.57 µM with RPMI-8226 leukemia; 3.12 µM in the assay on K-562 leukemia; 3.73 µM in the assay on 786-0 renal; 3.74 µM in the assay with T-47D breast. The GI50 is 6.76 µM in the assay with HOP-62 NSCLC, 4.19 µM in the assay with BT-549 breast, 2 µM with HCT-15 colon and 4.45 µM in the assay with MDA-MB-231 breast. The TGI was 18.1 µM in the assay with NCI-H522 lung; 99.4 µM in the assay on HT29 colon; 33.3 µM in the assay on RPMI-8226 leukemia; 28.6 µM in the assay with K-562 leukemia; 70.7 µM with 786-0 renal; 41.6 µM in the assay with T-47D breast. In addition, the TGI was 57.6 µM in the assay on HOP-62 NSCLC, 44.8 µM in the assay with BT-549 breast, greater than 100 µM in the assay with HCT-15 colon and 53.6 µM with MDA-MB-231 breast.
Regarding `Nc1ncc(-c2cccc(S(N)(=O)=O)c2)c2scc(-c3ccc(F)c(Cl)c3)c12`, the GI50 with NCI-H522 lung is 3.74 µM; with HT29 colon, 5 µM; in the assay on RPMI-8226 leukemia, 4.92 µM; in the assay on K-562 leukemia, 0.705 µM; with 786-0 renal it was 6.02 µM; with T-47D breast, 3.59 µM. The GI50 with HOP-62 NSCLC was 5.47 µM; with BT-549 breast, 7.69 µM; in the assay on HCT-15 colon it was 6.59 µM; with MDA-MB-231 breast it was 5.94 µM. In addition, the TGI in the assay on NCI-H522 lung was 7.74 µM; with HT29 colon it was 15.3 µM; in the assay on RPMI-8226 leukemia, 14.9 µM; with K-562 leukemia, greater than 11.7 µM; in the assay with 786-0 renal it was 17 µM; in the assay with T-47D breast, 11 µM. Besides, the TGI with HOP-62 NSCLC was 12.6 µM; in the assay on BT-549 breast it was 15.1 µM; in the assay on HCT-15 colon, greater than 25 µM; with MDA-MB-231 breast, greater than 25 µM.
For `CC(O)c1cc(C(=O)N[C@@H](C)Cn2ccc(-c3ccc(C#N)c(Cl)c3)n2)n[nH]1` (stereo partly drawn), the GI50 in the assay with NCI-H522 lung is 39.4 µM; in the assay with HT29 colon it was greater than 100 µM; in the assay with RPMI-8226 leukemia it was 15.3 µM; in the assay with K-562 leukemia it was 0.73 µM; in the assay on 786-0 renal, greater than 100 µM; in the assay on T-47D breast it was 13.2 µM. In addition, the GI50 with HOP-62 NSCLC was greater than 100 µM; in the assay on BT-549 breast it was 19.7 µM; in the assay on HCT-15 colon, greater than 100 µM; in the assay on MDA-MB-231 breast, 53.3 µM. The TGI was greater than 100 µM with NCI-H522 lung; greater than 100 µM in the assay with HT29 colon; 80.6 µM in the assay on RPMI-8226 leukemia; greater than 100 µM with K-562 leukemia; greater than 100 µM with 786-0 renal; 87.8 µM in the assay on T-47D breast. In addition, the TGI was greater than 100 µM in the assay on HOP-62 NSCLC, 77.7 µM with BT-549 breast, greater than 100 µM in the assay on HCT-15 colon and greater than 100 µM in the assay with MDA-MB-231 breast.
As to `CC(=O)c1cc(O)c2ccccc2c1O`, the GI50 is 14.5 µM in the assay with NCI-H522 lung; 15.5 µM in the assay on HT29 colon; 22.7 µM in the assay with RPMI-8226 leukemia; 23.1 µM with K-562 leukemia; 20 µM in the assay with 786-0 renal; 17.4 µM in the assay on T-47D breast. Moreover, the GI50 in the assay on HOP-62 NSCLC is 17.5 µM; in the assay on BT-549 breast it was 20.1 µM; in the assay with HCT-15 colon, 20.5 µM; in the assay on MDA-MB-231 breast, 15.2 µM. The concentration for total growth inhibition (TGI) in the assay on NCI-H522 lung was found to be 35.4 µM; with HT29 colon it was 37 µM; in the assay with RPMI-8226 leukemia, 60.5 µM; with K-562 leukemia, 67.6 µM; in the assay on 786-0 renal it was 35.2 µM; in the assay with T-47D breast, 41.4 µM. The total growth inhibition concentration (TGI) in the assay on HOP-62 NSCLC was 41.4 µM; in the assay on BT-549 breast it was 37.2 µM; with HCT-15 colon, 44.1 µM; in the assay on MDA-MB-231 breast it was 36.2 µM.
As to `CS(=O)(=O)N(c1cc(-c2ccc3ncnc(Nc4cccc(Cl)c4)c3c2)cnc1Cl)S(C)(=O)=O`, the GI50 in the assay with NCI-H522 lung was 0.645 µM; in the assay on HT29 colon it was 0.364 µM; in the assay on RPMI-8226 leukemia, 0.522 µM; in the assay with K-562 leukemia, 1.23 µM; in the assay with 786-0 renal, 0.506 µM; in the assay with T-47D breast, 0.043 µM. Further, the GI50 is 0.443 µM in the assay with HOP-62 NSCLC, 0.318 µM in the assay on BT-549 breast, 0.403 µM in the assay on HCT-15 colon and 0.925 µM with MDA-MB-231 breast. For the same compound, the TGI stood at 7.74 µM in the assay with NCI-H522 lung; 58.8 µM in the assay on HT29 colon; 3.62 µM in the assay with RPMI-8226 leukemia; 45.1 µM in the assay on K-562 leukemia; 6.76 µM with 786-0 renal; 0.618 µM in the assay with T-47D breast. Besides, the TGI in the assay with HOP-62 NSCLC was 12.8 µM; in the assay on BT-549 breast, 3.03 µM; in the assay on HCT-15 colon it was 6.99 µM; in the assay with MDA-MB-231 breast, 6.21 µM.
As for `CCN(CC)c1ccc(/C=C/C=C2\NC(=O)NC2=O)cc1`, the GI50 with NCI-H522 lung was 0.92 µM; with HT29 colon, 1.82 µM; in the assay on RPMI-8226 leukemia, 2.68 µM; with K-562 leukemia, 3.7 µM; in the assay on 786-0 renal it was 2.93 µM; in the assay on T-47D breast, 4 µM. Moreover, the GI50 is 3.64 µM in the assay on HOP-62 NSCLC, 1.53 µM with BT-549 breast, 2.31 µM in the assay on HCT-15 colon and 10.5 µM in the assay with MDA-MB-231 breast. In addition, the total growth inhibition concentration (TGI) was 4.11 µM with NCI-H522 lung; 9.25 µM with HT29 colon; 32.4 µM in the assay with RPMI-8226 leukemia; greater than 100 µM with K-562 leukemia; 34.2 µM in the assay with 786-0 renal; greater than 100 µM with T-47D breast. Also, the TGI in the assay on HOP-62 NSCLC was greater than 100 µM; with BT-549 breast it was 40.8 µM; in the assay with HCT-15 colon, greater than 100 µM; in the assay with MDA-MB-231 breast, greater than 100 µM.
For the compound `CCN(Cc1c(Cl)cccc1Cl)c1ccc(CO)c(Cl)c1`, the GI50 was 11.1 µM with NCI-H522 lung; 2.43 µM in the assay on HT29 colon; 1.12 µM with RPMI-8226 leukemia; 0.439 µM in the assay with K-562 leukemia; 13.8 µM in the assay on 786-0 renal; less than 0.017 µM in the assay with T-47D breast. Further, the GI50 in the assay with HOP-62 NSCLC is 2.15 µM; with BT-549 breast it was 16.2 µM; in the assay with HCT-15 colon it was 10.4 µM; in the assay with MDA-MB-231 breast it was 13 µM. For the same compound, the TGI is 24.9 µM in the assay on NCI-H522 lung; 15.3 µM in the assay with HT29 colon; 17.6 µM with RPMI-8226 leukemia; 10.6 µM in the assay with K-562 leukemia; 28.1 µM in the assay with 786-0 renal; 0.18 µM in the assay with T-47D breast. In addition, the concentration for total growth inhibition (TGI) with HOP-62 NSCLC amounted to 21.2 µM; in the assay on BT-549 breast it was 30.4 µM; in the assay with HCT-15 colon, 23.5 µM; with MDA-MB-231 breast it was 26.2 µM.
For the compound `CC(=C/c1ccccc1)/C=C1/NC(=S)N(/C=C2\C(=O)Oc3ccccc3C2=O)C1=O`, the TGI in the assay on NCI-H522 lung is greater than 90.5 µM; in the assay with HT29 colon, greater than 100 µM; in the assay on RPMI-8226 leukemia it was greater than 100 µM; in the assay with K-562 leukemia, greater than 100 µM; in the assay on 786-0 renal it was greater than 100 µM; in the assay with T-47D breast it was greater than 100 µM. For the same compound, the TGI with HOP-62 NSCLC, in the assay with BT-549 breast, in the assay with HCT-15 colon and in the assay with MDA-MB-231 breast was greater than 100 µM in each case. Further, the GI50 with HT29 colon is greater than 100 µM; with 786-0 renal, 57.6 µM; in the assay with BT-549 breast, 36.8 µM.

For the origin of these results see PubChem BioAssay (NCI).
